Assay results reported in PubChem BioAssay (NCI).
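How tested: cells in 96-well plates exposed to compound for 48 hours at five concentrations. TGI is the concentration that stops growth completely.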

Key:
Test in all cases: NCI-60 cell line screen, 48 h
786-0 renal = test system: 786-0 renal
A498 renal = test system: A498 renal
A549 NSCLC = test system: A549 NSCLC
ACHN renal = test system: ACHN renal
BT-549 breast = test system: BT-549 breast
CAKI-1 renal = test system: CAKI-1 renal
CCRF-CEM leukemia = test system: CCRF-CEM leukemia
COLO 205 colon = test system: COLO 205 colon
DU-145 prostate = test system: DU-145 prostate
EKVX NSCLC = test system: EKVX NSCLC
HCC-2998 colon = test system: HCC-2998 colon
HCT-116 colon = test system: HCT-116 colon
HCT-15 colon = test system: HCT-15 colon
HL-60(TB) leukemia = test system: HL-60(TB) leukemia
HOP-62 NSCLC = test system: HOP-62 NSCLC
HOP-92 NSCLC = test system: HOP-92 NSCLC
HT29 colon = test system: HT29 colon
IGROV1 ovarian = test system: IGROV1 ovarian
K-562 leukemia = test system: K-562 leukemia
KM12 colon = test system: KM12 colon
LOX IMVI melanoma = test system: LOX IMVI melanoma
M14 melanoma = test system: M14 melanoma
MCF7 breast = test system: MCF7 breast
MDA-MB-231 breast = test system: MDA-MB-231 breast
MDA-MB-435 = test system: MDA-MB-435
MOLT-4 leukemia = test system: MOLT-4 leukemia
NCI-H226 lung = test system: NCI-H226 lung
NCI-H23 lung = test system: NCI-H23 lung
NCI-H460 lung = test system: NCI-H460 lung
NCI-H522 lung = test system: NCI-H522 lung
NCI/ADR-RES ovarian = test system: NCI/ADR-RES ovarian
OVCAR-3 ovarian = test system: OVCAR-3 ovarian
OVCAR-4 ovarian = test system: OVCAR-4 ovarian
OVCAR-5 ovarian = test system: OVCAR-5 ovarian
OVCAR-8 ovarian = test system: OVCAR-8 ovarian
PC-3 prostate = test system: PC-3 prostate
RPMI-8226 leukemia = test system: RPMI-8226 leukemia
RXF 393 renal = test system: RXF 393 renal
SF-295 CNS = test system: SF-295 CNS
SF-539 CNS = test system: SF-539 CNS
SK-MEL-2 melanoma = test system: SK-MEL-2 melanoma
SK-MEL-28 melanoma = test system: SK-MEL-28 melanoma
SK-MEL-5 melanoma = test system: SK-MEL-5 melanoma
SK-OV-3 ovarian = test system: SK-OV-3 ovarian
SN12C renal = test system: SN12C renal
SNB-19 CNS = test system: SNB-19 CNS
SNB-75 CNS = test system: SNB-75 CNS
SR leukemia = test system: SR leukemia
SW-620 colon = test system: SW-620 colon
T-47D breast = test system: T-47D breast
TK-10 renal = test system: TK-10 renal
U251 CNS = test system: U251 CNS
UACC-257 melanoma = test system: UACC-257 melanoma
UACC-62 melanoma = test system: UACC-62 melanoma

Measured: TGI

N#CC(C#N)=C1/C(=C/C=C/C=C/C=C/c2ccc(N3CCCCC3)s2)S(=O)(=O)c2ccccc21
63 µM: MOLT-4 leukemia
> 100 µM: all other assays above
